# Experimental data taken from EP4772520A1, “NOVEL PRODRUG-TYPE ANTICANCER AGENT TARGETING CANCER-SPECIFIC ENZYME ACTIVITY” (priority 2023, dated 2025).
# Where “and” joins values, the source holds several entries; their conditions need not be identical. Equal values may be shown once.
# Legend:
# JFCR39 cell panel = test: Cytotoxicity test using JFCR39 cell panel (sulforhodamine B); type: cell-based; details: 39 cell lines, 48 hours; for GI50 value: comparison with SN38 and CPT-11
# Description: The cancer cells were seeded in a 96 well plate, and on the next day, the drug solution was added according to the dilution series, and after culturing for 2 days (48 hours), cell proliferation was determined by colorimetric assay using sulforhodamine B.
# Each cancer cell was seeded in a 96 well plate, and on the next day, the drug solution was added according to the dilution series, and after culturing for 2 days (48 hours), cell proliferation was measured by colorimetric quantification with sulforhodamine B.
# [1] = Single dose toxicity test 1 (intravenous); type: in vivo, Jcl: ICR mice (female); details: for symptoms immediately after administration: 200 mg/kg intravenous, improved in several hours; for Survival rate (%) (after 10 days) / Survival rate (%) (just after administration): 200 mg/kg single intravenous administration, n=10; for LD50 at 240 h: mouse, in vivo, iv, single intravenous administration, estimated
# Description: Single dose toxicity was evaluated by intravenously administering 200 mg/kg each of the novel prodrug-type anticancer agents SN38-βGal and SN38-βGlcNAc to Jcl: ICR mice (female).
# human AChE = molecular target: T1, human AChE (Homo sapiens, UniProt P22303); test: Evaluation of inhibitory activity on acetylcholinesterase (AChE); type: biochemical; details: for AChE inhibitory activity: in the presence of 10 µM of each drug; for IC50: read-out: IC50 value for AChE inhibition, 60 min value
# T1 construct: purchased AnaSpec, Inc
# T1 sequence (P22303 32-614): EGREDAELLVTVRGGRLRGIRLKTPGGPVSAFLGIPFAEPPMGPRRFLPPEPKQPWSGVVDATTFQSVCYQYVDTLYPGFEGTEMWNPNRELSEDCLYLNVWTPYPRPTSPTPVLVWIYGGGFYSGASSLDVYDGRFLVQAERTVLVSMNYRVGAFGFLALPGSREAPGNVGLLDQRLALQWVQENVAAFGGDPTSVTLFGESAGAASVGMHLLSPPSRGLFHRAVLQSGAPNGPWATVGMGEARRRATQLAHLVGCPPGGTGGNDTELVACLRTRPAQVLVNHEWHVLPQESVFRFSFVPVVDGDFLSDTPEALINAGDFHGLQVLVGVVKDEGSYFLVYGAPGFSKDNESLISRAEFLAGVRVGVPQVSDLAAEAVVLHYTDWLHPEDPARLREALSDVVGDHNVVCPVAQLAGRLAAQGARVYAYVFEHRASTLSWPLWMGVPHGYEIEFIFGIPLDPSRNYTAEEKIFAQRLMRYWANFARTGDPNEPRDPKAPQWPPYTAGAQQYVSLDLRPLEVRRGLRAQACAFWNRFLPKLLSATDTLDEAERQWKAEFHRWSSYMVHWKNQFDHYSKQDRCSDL
# Description: The procedure of the specific inhibition test is shown below. • (1) A test drug at each concentration was added to a 96 well plate, and acetylcholine, an AChE substrate, and an AChE purified enzyme were added according to a protocol, using SensoLyte (registered trademark) 520 Acetylcholine esterase Activity Assay Kit Fluorometric (AnaSpec, Inc.). Neostigmine bromide known as an AChE inhibitor was used as […]. • (2) The fluorescence value at 520 nm was measured, and the IC50 value was calculated.
# [2] = Evaluation of locomotion after administration of drug; type: in vivo; details: intravenous administration of 40 mg/kg, n = 4, 15 minutes from 1 minute after administration
# Description: The momentum after drug administration was compared (n = 4).
# Fig. 22 illustrates results of locomotion evaluation after drug administration. a of Fig. 22 illustrates the head movement distance for 15 minutes from 1 minute after administration in each group. The drug is administered intravenously at 40 mg/kg (n = 4). b of Fig. 22 illustrates an example of a movement trajectory for 15 minutes from 1 minute after administration in each group. c of Fig. 22 illustrates an example of a movement distance for each time from 1 minute after administration in each group.
# [3] = tested on: luciferase-expressing A549 cells; test: Therapeutic experiment 1 in A549 lung cancer orthotopic transplantation model; type: in vivo, mice; details: 40 mg/kg i.v., 3 times a week; for tumor suppression effect (luciferin/luciferase chemiluminescence): vs Vehicle
# Description: The administration form was intravenous administration (i.v.). The dose was 40 mg/kg, and administration was performed 3 times a week for 4 times. The tumor burden was determined by evaluating the luciferin/luciferase chemiluminescence value. The endpoint was the time point of significant body weight loss (20% loss).
# A specific procedure of the therapeutic experiment is shown below. • (1) Model mice were created by the following operation using BALB/cAJcl-nu/nu (7 weeks old). The skin of the chest was incised, and the skin was subcutaneously detached, then luciferase-expressing A549 cells 2 × 10^7 cells/mL (50 µL, 5% Matrigel) was injected from the intercostal pleura to the left lung. After injection, the skin was sutured. • (2) After 17 days, the formation of cancer was confirmed by luciferin/luciferase chemiluminescence, and the intravenous administration of the drug was started. The drug was prepared by dissolving a 200 mM of DMSO stock in PBS, and administered in a total amount of 100 µL. 3 mg (200 µL) of luciferin was administered by intraperitoneal administration, and anesthetized with isoflurane. Thereafter, the chemiluminescent value at 20 minutes after administration was measured by an in vivo imaging device. • (3) On the day of evaluation, the tumor burden was evaluated by the body weight and the luciferin/luciferase chemiluminescence.
# in vivo = details: for AUC(0-t) at 6 h: AUC0-6h (μg・h/mL); for clearance: CLtot (mL/min/kg); for AUC0-6h (μg・h/mL): 360 min
# From the text: A specific test procedure is shown below. • (1) Three marmosets (6 males in total) in each of the SN38-βGal and SN38-βGlcNAc administration groups were sequentially retained using a retention device, and a tail of the administration site was shaved. • (2) The base of the tail from the injection site was avascularized to cause blood vessels to become engorged. Veins running on both left and right sides of the tail were checked, the puncture site was disinfected with alcohol cotton, and then administration was performed with a 27 G injection needle using one of the left and right blood vessels. For administration, 1.0 mg/mL of prepared administration solution of SN38-βGal or SN38-βGlcNAc was intravenously administered at an injection rate of 350 µL/min (about 11 minutes: due to different body weight, the time τ actually required for the injection was accurately recorded for each individual) by an infusion pump at a dose of 10 mg/10 mL/kg. • (3) Immediately after the start of infusion administration, about 220 µL of blood was collected with a heparinized syringe at 5, 15, 30, 45 minutes, 1, 2, 3, and 6 hours, and centrifuged at 1200 G and 4°C for 15 minutes to collect plasma. • (4) After the plasma was dispensed into the microtube, 100 µL of the plasma was accurately taken, and a 200 µM of inhibitor N-(n-nonyl) deoxygalactonoijirimycin solution in the SN38-βGal administration group, a 200 µM of inhibitor PUGNAc solution in the SN38-βGlcNAc administration group, and 100 µL of each were added to the microtube dispensed in advance and mixed quickly.
# [4] = tested on: lung squamous carcinomas cell H226; test: Cytotoxicity test by MTT assay method (H226 cells); type: cell-based; details: for cytotoxicity in the presence of inhibitor: H226; for IC50: Homo sapiens, NCI-H226, 72 h, read-out: IC50 value
# [5] = marmoset, in vivo, iv, 10 mg/kg, prodrug, 11 min infusion, N=3, average
# [6] = marmoset, in vivo, iv, 10 mg/kg, prodrug, 10 mg/kg i.v., individual marmosets
# [7] = marmoset, in vivo, iv, 10 mg/kg, Vd (L/kg), prodrug, 11 min infusion, N=3, average
# [8] = marmoset, in vivo, iv, 10 mg/kg, Vd (L/kg), prodrug, 10 mg/kg i.v., individual marmosets
# [9] = marmoset, in vivo, iv, 10 mg/kg, blood half-life, prodrug, 10 mg/kg i.v., 11 minutes infusion
# [10] = marmoset, in vivo, iv, 10 mg/kg, t1/2 (h), prodrug, 11 min infusion, N=3, average
# [11] = marmoset, in vivo, iv, 10 mg/kg, t1/2 (h), prodrug, 10 mg/kg i.v., individual marmosets
# [12] = prodrug, 10 mg/kg i.v., individual marmosets, 10 mg/kg
Compound,suppression of cell proliferation (JFCR39 cell panel),GI50 value (JFCR39 cell panel),symptoms immediately after administration [1],Survival rate (%) (after 10 days) [1],Survival rate (%) (just after administration) [1],LD50 at 240 h [1] [mg/kg],AChE inhibitory activity (human AChE),IC50 (human AChE) [µM],locomotion after drug administration [2],body weight [3],tumor suppression effect (luciferin/luciferase chemiluminescence) [3],abnormalities after drug administration (in vivo; 10 mg/kg i.v.),AUC(0-t) at 6 h (in vivo; [5]) [ng·h/mL],clearance (in vivo; [5]) [mL/min/kg],Vd (in vivo; [7]) [L/kg],Vd (in vivo; [8]) [L/kg],half-life (in vivo; [9]) [min],half-life (in vivo; [10]) [min],half-life (in vivo; [11]) [min],CLtot (in vivo; [12]),further results
CCc1c2c(nc3ccc(O[C@@H]4O[C@H](CO)[C@@H](O)[C@H](O)[C@H]4NC(C)=O)cc13)-c1cc3c(c(=O)n1C2)COC(=O)[C@]3(O)CC [SN38-βGlcNAc],suppressed proliferation of almost all cancer cells,close to SN38 and lower than CPT-11,"reduced locomotor activity, tremor, and prone states were found in more than half of the mice in both groups",100,100,≥ 200,did not inhibit AChE activity in this concentration range,1440,these decreases in the locomotion were hardly observed,"the slight body weight loss was found, but it was not remarkable as in CPT-11",tended to suppress tumor growth as in the CPT-11 administration group,"remarkable abnormalities, vomiting, and the like were not found in any individual",78300,2.2,0.142,0.149,47.6,47.6,43.9,2.0 mL/min/kg,"AUC(0-t) at 6 h (in vivo; [6]): 73500 ng·h/mL; AUC (in vivo; marmoset, in vivo, iv, 10 mg/kg, AUC0- (μg・h/mL), prodrug, 10 mg/kg i.v., individual marmosets): 73800 ng·h/mL; clearance (in vivo; [6]): 2.3 mL/min/kg; Vd (in vivo; [12]): 0.134 L/kg and 0.143 L/kg; t1/2 (in vivo; [12]): 49.7 min and 49.3 min; AUC0-6h (μg・h/mL) (in vivo; [12]): 84.34 μg・h/mL and 76.92 μg・h/mL; cytotoxicity in the presence of inhibitor ([4]; 40 µM of inhibitor of β-hexosaminidase, PUGNAc): cytotoxicity was significantly reduced; IC50 [4]: 1.5 µM"
CCc1c2c(nc3ccc(O[C@@H]4O[C@H](CO)[C@H](O)[C@H](O)[C@H]4O)cc13)-c1cc3c(c(=O)n1C2)COC(=O)[C@]3(O)CC [SN38-βGal],suppressed proliferation of almost all cancer cells,close to SN38 and lower than CPT-11,"reduced locomotor activity, tremor, and prone states were found in more than half of the mice in both groups",100,100,≥ 200,did not inhibit AChE activity in this concentration range,1560,these decreases in the locomotion were hardly observed,"the slight body weight loss was found, but it was not remarkable as in CPT-11",tended to suppress tumor growth as in the CPT-11 administration group,"remarkable abnormalities, vomiting, and the like were not found in any individual",52700,3.5,0.215,0.205,58.3,58.3,49.9,3.4 mL/min/kg and 2.2 mL/min/kg and 4.8 mL/min/kg,"Vd (in vivo; [12]): 0.169 L/kg and 0.271 L/kg; t1/2 (in vivo; [12]): 58.7 min and 66.3 min; AUC0-6h (μg・h/mL) (in vivo; [12]): 48.57 μg・h/mL and 75.13 μg・h/mL and 34.47 μg・h/mL; cytotoxicity in the presence of inhibitor ([4]; inhibitor of β-galactosidase, N-(n-nonyl) deoxygalactonoijirimycin, 40 µM): cytotoxicity was significantly reduced; IC50 [4]: 1.39 µM"
